According to ChEMBL document CHEMBL1201862, “PubChem BioAssay data set” (2004):
Calls of active or inactive are those of the source.

Key:
ORF 73 = ORF 73 (Human herpesvirus 8, UniProt O40947); assay: inhibitors of C-LANA binding to LBS DNA, dose response, biochemical, fluorescence polarization, cherry-picked samples (AID 504725); design: species or system Human gammaherpesvirus 8;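 note: fluorescence polarization of a labeled DNA duplex reporting LANA DNA binding; potency is for inhibitors that block LANA binding to the DNA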
[1] = target: T1, Heat shock factor protein 1 (Mus musculus, UniProt P38532); assay: HSF1 potentiators in luciferase reporter cells, confirmation, cell-based, NIH3T3, luminescence, dose retest (AID 435004); format: functional;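 note: stress induced by proteasome inhibitor MG132 added 30 min after compound; luciferase reporter driven by HSF1 response element in NIH3T3 cells; actives raise luminescence as potentiators of the MG132 stress response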
T1 sequence (P38532 whole entry): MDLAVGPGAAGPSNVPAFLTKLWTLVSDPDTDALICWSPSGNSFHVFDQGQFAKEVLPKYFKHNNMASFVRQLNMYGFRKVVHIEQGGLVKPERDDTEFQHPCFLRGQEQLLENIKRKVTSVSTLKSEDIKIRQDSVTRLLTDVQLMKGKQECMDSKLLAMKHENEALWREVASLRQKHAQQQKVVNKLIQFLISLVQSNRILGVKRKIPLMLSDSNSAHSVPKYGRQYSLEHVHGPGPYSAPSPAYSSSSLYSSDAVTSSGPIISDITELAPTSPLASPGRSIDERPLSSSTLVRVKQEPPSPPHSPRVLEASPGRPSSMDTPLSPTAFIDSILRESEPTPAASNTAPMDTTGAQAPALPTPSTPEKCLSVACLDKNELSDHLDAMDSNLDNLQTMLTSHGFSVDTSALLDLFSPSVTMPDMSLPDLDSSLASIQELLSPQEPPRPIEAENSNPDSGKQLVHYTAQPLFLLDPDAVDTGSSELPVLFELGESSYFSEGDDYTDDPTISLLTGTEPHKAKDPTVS

HeLa = assay: HeLa cell cytotoxicity, dose response, cytotoxicity control, 24 h, cherry-picked samples (AID 504726); format: functional, cell-based; details: Homo sapiens;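 note: potency for cytotoxicity as loss of luminescence signal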
[2] = growth suppression of beta-catenin-knockout colon cells, dose response, cell-based, HCT116, human colon tumor (AID 1045); format: functional;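 note: HCT116 colon tumor cells with beta catenin knocked out; cells exposed to compound for 60 hours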
[3] = growth suppression of PTEN-null colon cells, dose response, cell-based, HCT116 PTEN knockout (AID 1047); format: functional;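 note: HCT116 colon tumor cells with PTEN knocked out; cells exposed to compound for 60 hours before readout; potency for loss of cell viability measured by luminescence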
[4] = C. albicans growth with fluconazole, confirmation, fluorescence, retest (AID 2467); format: functional, cell-based
[5] = test system: Streptococcus sp. 'group A'; assay: growth inhibition of control SK(-) GAS strain, dose response, counter-screen for streptokinase expression inhibitor project, luminescence, kanamycin, BacTiterGlo, confirmation (AID 1900); format: functional, organism-based
[6] = NIH-3T3 fibroblast cytotoxicity, dose response, cytotoxicity control, cell-based, fluorescence, Alamar Blue, secondary assay (AID 2327); format: functional;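 note: NIH-3T3 mouse fibroblasts cultured with fluconazole at 8 µg/mL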
Streptococcus = assay: Group A Streptococcus viability loss, dose response, counter-screen for streptokinase expression inhibitor project, luminescence, BacTiterGlo (AID 1915); format: functional, organism-based;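 note: potency for reduction of bacterial viability or growth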
Beta-galactosidase = Beta-galactosidase (Escherichia coli, UniProt Q8VNN2); assay: beta-galactosidase enzyme inhibitors and activators, dose response, artefact control for CCR6 antagonist project, biochemical, E. coli enzyme, set 3 (AID 504712); format: functional
Streptokinase A = target: T2, Streptokinase A (Streptococcus pyogenes serotype M1, UniProt P10520); assay: S. pyogenes streptokinase expression inhibitors, potency, dose response, plasminogen activation absorbance, OD405 (AID 1914); format: functional, Streptococcus pyogenes M1 GAS;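 note: secreted streptokinase activity via plasminogen activation per viability signal from cell pellet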
T2 sequence (P10520 whole entry): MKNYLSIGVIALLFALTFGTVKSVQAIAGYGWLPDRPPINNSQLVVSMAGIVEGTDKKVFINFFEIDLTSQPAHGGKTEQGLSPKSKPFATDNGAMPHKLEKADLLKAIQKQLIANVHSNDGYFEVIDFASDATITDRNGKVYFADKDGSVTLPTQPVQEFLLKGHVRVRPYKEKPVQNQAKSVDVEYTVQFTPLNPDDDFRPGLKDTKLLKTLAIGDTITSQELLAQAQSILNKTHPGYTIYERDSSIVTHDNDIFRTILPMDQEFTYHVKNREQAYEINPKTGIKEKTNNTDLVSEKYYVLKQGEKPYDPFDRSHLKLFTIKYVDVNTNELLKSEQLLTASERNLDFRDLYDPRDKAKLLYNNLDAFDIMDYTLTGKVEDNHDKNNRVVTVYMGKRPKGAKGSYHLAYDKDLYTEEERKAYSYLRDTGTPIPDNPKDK

[7] = target: G-protein coupled receptor 55 (Homo sapiens, UniProt Q9Y2T6); assay: GPR55 antagonists blocking LPI-driven arrestin recruitment, primary screen, imaging, U2OS, beta-arrestin-GFP, LPI agonist (AID 2013); format: functional;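 note: antagonist potency measured as reduced agonist-driven arrestin aggregation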
Troponin, cardiac muscle = Troponin, cardiac muscle (Homo sapiens, UniProt P19429+P45379+P63316); assay: Fluorescence-based biochemical high throughput dose response assay for activators of the calcium sensitivity of cardiac Regulated Thin Filaments (RTF). [Related pubchem assays (depositor defined):AID493008, AID493018, AID504382, AID504383]; format: protein-complex assay
[8] = target: Nucleotide-binding oligomerization domain-containing protein 2 (Homo sapiens, UniProt Q9HC29); assay: NOD2 signaling inhibitors, cell-based, luminescence, uHTS, HEK293 (AID 1566); format: functional
Tumor necrosis factor = Tumor necrosis factor (Homo sapiens, UniProt P01375); assay: TNFa-triggered NF-kB activation inhibitors, SAR follow-up, cell-based, revised (AID 2337); format: functional
[9] = target: T3, Nucleotide-binding oligomerization domain-containing protein 1 (Homo sapiens, UniProt Q9Y239); assay: NOD1 signaling inhibitors, SAR follow-up, revised (AID 2333); format: functional
T3 sequence (Q9Y239 whole entry): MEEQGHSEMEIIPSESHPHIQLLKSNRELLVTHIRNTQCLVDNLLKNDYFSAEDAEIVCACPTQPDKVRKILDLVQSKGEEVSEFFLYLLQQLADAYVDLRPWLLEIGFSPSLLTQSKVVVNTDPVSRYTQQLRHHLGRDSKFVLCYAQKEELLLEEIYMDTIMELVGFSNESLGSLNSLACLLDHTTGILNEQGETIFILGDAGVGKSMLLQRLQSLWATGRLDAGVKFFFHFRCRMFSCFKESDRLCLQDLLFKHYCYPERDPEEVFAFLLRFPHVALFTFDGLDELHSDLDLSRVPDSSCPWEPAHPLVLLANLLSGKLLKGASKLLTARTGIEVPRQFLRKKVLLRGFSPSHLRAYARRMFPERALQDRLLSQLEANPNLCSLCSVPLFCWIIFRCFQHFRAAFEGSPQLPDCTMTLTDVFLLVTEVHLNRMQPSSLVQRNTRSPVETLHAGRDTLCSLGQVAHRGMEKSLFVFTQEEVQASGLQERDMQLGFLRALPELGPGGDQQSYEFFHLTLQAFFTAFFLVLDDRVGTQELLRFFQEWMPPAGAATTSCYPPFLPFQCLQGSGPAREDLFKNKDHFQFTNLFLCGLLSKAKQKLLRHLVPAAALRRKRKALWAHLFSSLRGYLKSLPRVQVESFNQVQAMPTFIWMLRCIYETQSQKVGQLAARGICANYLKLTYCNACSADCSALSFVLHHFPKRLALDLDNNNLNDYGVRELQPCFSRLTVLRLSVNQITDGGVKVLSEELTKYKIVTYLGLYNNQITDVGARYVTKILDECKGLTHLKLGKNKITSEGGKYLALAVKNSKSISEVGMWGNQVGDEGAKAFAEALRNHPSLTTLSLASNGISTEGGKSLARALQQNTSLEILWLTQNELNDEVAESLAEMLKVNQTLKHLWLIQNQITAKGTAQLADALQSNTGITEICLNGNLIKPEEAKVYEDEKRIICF

Coagulation factor XII = target: T4, Coagulation factor XII (Homo sapiens, UniProt P00748); assay: FXIIa inhibitor potency, concentration-response, biochemical (AID 716); format: functional
T4 sequence (P00748 whole entry): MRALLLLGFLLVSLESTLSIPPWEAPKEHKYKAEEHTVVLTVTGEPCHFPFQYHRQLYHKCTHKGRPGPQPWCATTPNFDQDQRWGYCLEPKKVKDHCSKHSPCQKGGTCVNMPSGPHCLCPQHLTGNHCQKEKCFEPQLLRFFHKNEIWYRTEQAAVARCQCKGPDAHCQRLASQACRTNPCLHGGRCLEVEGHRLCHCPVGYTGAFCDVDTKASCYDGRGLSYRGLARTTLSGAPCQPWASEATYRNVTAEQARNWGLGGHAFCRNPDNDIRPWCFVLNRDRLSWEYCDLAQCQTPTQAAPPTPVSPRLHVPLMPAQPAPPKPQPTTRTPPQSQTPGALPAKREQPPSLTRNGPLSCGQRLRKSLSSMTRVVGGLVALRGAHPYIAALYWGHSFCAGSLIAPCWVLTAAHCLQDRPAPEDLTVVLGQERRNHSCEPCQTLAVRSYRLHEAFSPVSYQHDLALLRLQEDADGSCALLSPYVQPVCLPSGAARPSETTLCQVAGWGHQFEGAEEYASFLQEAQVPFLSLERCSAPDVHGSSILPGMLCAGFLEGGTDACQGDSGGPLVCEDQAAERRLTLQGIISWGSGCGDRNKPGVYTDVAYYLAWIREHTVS

[10] = target: DNA damage-inducible transcript 3 protein (Mus musculus, UniProt P35639); format: functional, Cricetulus griseus
INS1 = assay: beta cell apoptosis inhibitors, cytokine rescue, dose response, luminescence, retest (AID 449756); format: functional, cell-based; details: Rattus norvegicus;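 note: cell death triggered by IL-1 beta plus TNF-alpha plus IFN-gamma mixture; protective hits raise ATP signal compared with cytokine alone wells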
Beta Lactamase = Beta Lactamase (Pseudomonas aeruginosa, UniProt Q932Y6); assay: beta-lactamase reporter inhibitor potency, dose response, artefact control for TLR9-MyD88 binding inhibitor project, BLA reporter cells, FRET fluorescence (AID 588341); format: cell-based;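 note: cell based assay in CHO-K1 cells stably expressing beta-lactamase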
CHO = assay: cytotoxicity in TLR9-MyD88 CHO cells, dose response, cytotoxicity control for TLR9-MyD88 binding inhibitor project, cell-based, luminescence (AID 588339); format: functional, hamster; details: Cricetulus griseus;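 note: CHO cells stably coexpressing TLR9 and MyD88 fusions from primary screen; compound exposure lasted 48 hours before viability readout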
[11] = target: Induced myeloid leukemia cell differentiation protein Mcl-1 (Homo sapiens, UniProt Q07820); format: functional
[12] = target: T5, Glutathione-S-transferase (Schistosoma japonicum, UniProt Q26513); assay: biotin-GST/anti-GST TR-FRET signal inhibitors, dose response, artefact control for Vif-APOBEC3G degradation inhibitor project, biochemical (AID 1117362); format: functional
T5 sequence (Q26513 whole entry): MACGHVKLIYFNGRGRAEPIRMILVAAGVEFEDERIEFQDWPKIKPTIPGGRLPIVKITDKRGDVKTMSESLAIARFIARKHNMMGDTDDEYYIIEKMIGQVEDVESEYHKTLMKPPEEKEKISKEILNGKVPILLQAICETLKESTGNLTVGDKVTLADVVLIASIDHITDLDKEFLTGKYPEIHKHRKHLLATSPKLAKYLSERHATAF

[13] = target: T6, Tyrosine-protein phosphatase non-receptor type 7 (Homo sapiens, UniProt P35236); assay: redox-dependent HePTP inhibition, mechanism study, biochemical, fluorescence (AID 2068); format: functional
T6 sequence (P35236 whole entry): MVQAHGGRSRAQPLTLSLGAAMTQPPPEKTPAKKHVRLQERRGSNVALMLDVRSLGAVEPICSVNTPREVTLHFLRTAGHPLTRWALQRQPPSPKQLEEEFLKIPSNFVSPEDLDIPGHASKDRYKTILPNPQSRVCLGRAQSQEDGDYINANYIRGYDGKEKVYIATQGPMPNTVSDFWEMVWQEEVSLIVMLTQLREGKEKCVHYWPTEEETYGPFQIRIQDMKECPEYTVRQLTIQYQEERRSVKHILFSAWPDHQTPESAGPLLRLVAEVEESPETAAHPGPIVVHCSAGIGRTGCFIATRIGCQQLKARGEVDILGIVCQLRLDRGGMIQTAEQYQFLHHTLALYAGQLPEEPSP

[14] = target: Eukaryotic translation initiation factor 4E (Mus musculus, UniProt P63073); assay: eIF4E–eIF4G protein interaction inhibitors, dose response, biochemical, TR-FRET (AID 855); format: functional;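 note: potency for disrupting eIF4E binding to eIF4GI seen as loss of FRET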
[15] = inhibitors of firefly luciferase expression or activity, dose response, H4 neuroglioma cells, luminescence (AID 1990); format: functional, cell-based
[16] = target: G-protein coupled receptor 35 (Homo sapiens, UniProt Q9HC97); assay: GPR35 antagonists blocking zaprinast-driven arrestin recruitment, primary screen, imaging, U2OS, beta-arrestin-GFP, zaprinast agonist (AID 2058); format: functional;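 note: antagonist potency meaning inhibition of agonist-induced arrestin redistribution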
[17] = Luminescence Cell-Based Dose Response HTS to Identify Inhibitors of 5'UTR Stem-Loop Driven Prion Protein mRNA Translation in H4 Neuroglioblastoma Cells. [Related pubchem assays: 1827 (Project Summary), 1813 (Primary HTS)]; format: functional
[18] = inhibitors of SNCA 5'UTR-driven reporter translation, confirmation, H4 neuroglioma cells, luminescence (AID 1988); format: functional, cell-based

O=C(Nc1ccccc1F)C(=Cc1sc(N2CCOCC2)nc1-c1ccccc1)C(=O)Nc1ccccc1F
AC50 (ORF 73): 16.4 µM (active) | EC50 [1]: > 260 µM (inactive) | AC50 (HeLa): 292 µM (active) | EC50 [2]: 9.63 µM (active) | EC50 [3]: 11.9 µM (active)

Fc1cccc2sc(Nc3nnc(-c4ccco4)o3)nc12
EC50 [4]: 2.43 µM (active) | EC50 [5]: 0.632 µM (active) | EC50 [6]: 79.4 µM (active) | EC50 (Streptococcus): 11.2 µM (active) | IC50 (Beta-galactosidase): > 66.6 µM (inactive) | EC50 (Streptokinase A): > 150 µM (not active)

N=c1c2c(ncn1Cc1ccco1)Oc1cc(O)ccc1C2c1ccccc1 (stereo not given)
IC50 [7]: 1.2 µM (active) | EC50 (Troponin, cardiac muscle): > 71.4 µM (inactive)

CC(=O)Oc1ccc(NC(=O)Cc2ccccc2)c(C(=O)O)c1
EC50 (Troponin, cardiac muscle): > 71.5 µM (inactive)

Cc1oc(-c2ccccc2Cl)nc1CSc1nc2c(c(=O)[nH]1)CCCC2
EC50 [8]: 0.73 µM (active) | IC50 (Tumor necrosis factor): 3.09 µM (active) | IC50 [9]: 5.75 µM (active)

COCCn1c(SCC(N)=O)nnc1-c1c[nH]c2ccccc12
IC50 (Coagulation factor XII): > 50 µM (inactive)

Clc1ccc2[nH]c(-c3ccccc3)cc2c1
Absolute IC50 (CHOP) [10]: 10 µM

Cn1c(COc2ccc(Cl)cc2)nc2ccccc2c1=O
IC50 (Coagulation factor XII): > 50 µM (inactive)

Cc1ccccc1NC(=O)/C=C/c1ccc([N+](=O)[O-])s1
EC50 [2]: 1.16 µM (active) | AC50 (INS1): 6.17 µM (active) | Absolute IC50 (CHOP) [10]: 10 µM | IC50 (Beta Lactamase): 13.7 µM (inactive) | IC50 (CHO): 2.22 µM (active) | EC50 [3]: 1.6 µM (active)

O=C(NCCO)Nc1ccc2nc(-c3ccco3)c(-c3ccco3)nc2c1
IC50 [11]: 0.579 µM (active) | IC50 [12]: 48.5 µM (active) | IC50 [13]: 0.476 µM (active) | IC50 [14]: 50 µM (inactive)

Oc1ccc(/C=N/Nc2nc(-c3ccccc3F)nc3ccccc23)c(O)c1
IC50 [7]: 1.47 µM (active) | EC50 [15]: 23.2 µM (active) | IC50 [16]: 3.08 µM (active) | EC50 [17]: 18.4 µM (active) | EC50 [18]: 6.7 µM (active)
